Assays:
[1] = Stability (heat, alkali, aqueous solution) of compounds A to G; assay type: physicochemical
ulcer = experiment: Anti-ulcer test (restraint and water immersion ulcer in rats, i.p.); assay type: in vivo, Male Wistar rats; settings: Rattus norvegicus, ip; 50 mg/kg i.p.; read-out: % Inhibition of Ulcer
In short: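 Compound given intraperitoneally in saline to 24 h-fasted male Wistar rats about 150 g, followed after one hour by 6 h restraint with water immersion at 21 °C. Gastric lesions graded 0, 0.5, 1, 2 or 3 on microscopic inspection and converted to percent ulcer inhibition.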

[2] = Solubility of compounds A to G; assay type: physicochemical; settings: in water and organic solvents
edema = experiment: Anti-edema test (carrageenan hindfoot edema in rats, p.o.); assay type: in vivo, Male Wistar rats; settings: Rattus norvegicus, po; 100 mg/kg p.o. (after 3 hours)
Description: Tables 13, 14 and 15 show the effect of these compounds to inhibit the occurrence of ulcer and edema. The anti-ulcer and anti-edema activity of the compounds was evaluated in efficacy tests described below. The first two symbols that appear in each of the compound names in Tables 13 and 15 represent the compounds synthesized in the methods (1) through (29); for example, IIIa-1 of a compound IIIa-1-1 represent the compound (IIIa-1).
Male Wistar rats weighing about 150 g on average were starved overnight prior to the test. They were than orally administered 100 mg/kg of the test compound. One hour later, the pad of a hindfoot of the animal was injected with 1 mg of carrageenan. The volume of the foot was measured both before the injection of carrageenan and three hours after the injection. The percent edema inhibition of the test compound was calculated from the ratio of the increase in the volume of the affected foot of the test animals to the increase in the volume of the affected foot of the controls.

Row | stability to heat and/or alkali [1] | stability in aqueous solution ([1]; aqueous solution) | Structure (SMILES) | inhibition in vivo at 50 mg/kg (ulcer) [%] | solubility [2] | inhibition in vivo at 100 mg/kg (edema) [%]
1 | very labile to heat and alkali | – | CC(C)CC(NC(=N)C(O)C(O)C(N)CC(=O)O)C1Cc2cccc(O)c2C(=O)O1 (centres unmarked) [A] | 100 | freely soluble in water, methanol, dimethylformamide, and dimethyl sulfoxide, sparingly soluble in a lower alcohol of C2 to C3 and dioxane, and substantially insoluble in ethyl acetate, chloroform, ether, hexane and benzene | –
2 | as labile to alkali is AI-77-B | – | CC(=O)NC1CC(=O)OC1C(O)C(=O)NC(CC(C)C)C1Cc2cccc(O)c2C(=O)O1 (centres unmarked) [C] | 66 | freely soluble in lower alcohols, dimethylformamide, dimethyl sulfoxide and dioxane, sparingly soluble in chloroform and ethyl acetate, and substanitally insoluble in water, ether, hexane and benzene | –
3 | as labile to alkali as AI-77-B | – | CCC(=O)NC1CC(=O)OC1C(O)C(=O)NC(CC(C)C)C1Cc2cccc(O)c2C(=O)O1 (centres unmarked) [D] | 66 | soluble in lower alcohol, dimethylformamide, dimethyl sulfoxide, dioxane, chloroform, and ethyl acetate, and substantially insoluble in water, ether, hexane and benzene | –
4 | as labile to alkali as AI-77-B | – | CC(C)CC(NC(=O)C(O)C1C=CC(=O)O1)C1Cc2cccc(O)c2C(=O)O1 (centres unmarked) [F] | 44 | freely soluble in ethyl acetate, chloroform, dimethylformamide and dimethyl sulfoxide, sparingly soluble in lower alcohols and dioxane, and substantially insoluble in water, hexane and benzene | –
5 | – | relatively stable in aqueous solution | CC(C)CC(NC(=O)C(O)C(O)C(N)CC(=O)O)C(O)Cc1cccc(O)c1C(=O)O (centres unmarked) [G] | 33 | freely soluble in water and slightly soluble in organic solvents | –
6 | – | – | CCCCNC1CC(=O)OC1C(O)C(=O)NC(CC(C)C)C1Cc2cccc(O)c2C(=O)O1 (centres unmarked) [IIIa-18-3] | 100 | – | 42
7 | – | – | CC(C)CNC1CC(=O)OC1C(O)C(=O)NC(CC(C)C)C1Cc2cccc(O)c2C(=O)O1 (centres unmarked) [IIIa-18-4] | 94 | – | 47
8 | – | – | CC(C)CCNC1CC(=O)OC1C(O)C(=O)NC(CC(C)C)C1Cc2cccc(O)c2C(=O)O1 (centres unmarked) [IIIa-18-5] | 100 | – | 47
9 | – | – | CCCCCNC1CC(=O)OC1C(O)C(=O)NC(CC(C)C)C1Cc2cccc(O)c2C(=O)O1 (centres unmarked) [IIIa-18-6] | 94 | – | 50
10 | – | – | CCCCCCNC1CC(=O)OC1C(O)C(=O)NC(CC(C)C)C1Cc2cccc(O)c2C(=O)O1 (centres unmarked) [IIIa-18-7] | 100 | – | 51
11 | – | – | CCCCCCCNC1CC(=O)OC1C(O)C(=O)NC(CC(C)C)C1Cc2cccc(O)c2C(=O)O1 (centres unmarked) [IIIa-18-8] | 94 | – | 50
12 | – | – | CCCCCCCCNC1CC(=O)OC1C(O)C(=O)NC(CC(C)C)C1Cc2cccc(O)c2C(=O)O1 (centres unmarked) [IIIa-18-9] | 94 | – | 43
13 | – | – | CCCCCCCCCCCCNC1CC(=O)OC1C(O)C(=O)NC(CC(C)C)C1Cc2cccc(O)c2C(=O)O1 (centres unmarked) [IIIa-18-10] | 94 | – | 43
14 | – | – | CCCCCCCCCCCCCCCCCCNC1CC(=O)OC1C(O)C(=O)NC(CC(C)C)C1Cc2cccc(O)c2C(=O)O1 (centres unmarked) [IIIa-18-11] | 83 | – | 35
15 | – | – | CCNC1CC(=O)OC1C(O)C(=O)NC(CC(C)C)C1Cc2cccc(OCC)c2C(=O)O1 (centres unmarked) [IIIa-22-1] | 94 | – | 37
16 | – | – | CCOc1cccc2c1C(=O)OC(C(CC(C)C)NC(=O)C(O)C1OC(=O)CC1NCCC(C)C)C2 (centres unmarked) [IIIa-22-2] | 94 | – | 35
17 | – | – | CCCCOc1cccc2c1C(=O)OC(C(CC(C)C)NC(=O)C(O)C1OC(=O)CC1NCC)C2 (centres unmarked) [IIIa-22-3] | 94 | – | 38
18 | – | – | CCNC1CC(=O)OC1C(O)C(=O)NC(CC(C)C)C1Cc2cccc(OC)c2C(=O)O1 (centres unmarked) [IIIa-22-5] | 94 | – | 37
19 | – | – | CCCCNC1CC(=O)OC1C(O)C(=O)NC(CC(C)C)C1Cc2cccc(OC)c2C(=O)O1 (centres unmarked) [IIIa-22-74] | 100 | – | 45
20 | – | – | CCCCNC1CC(=O)OC1C(O)C(=O)NC(CC(C)C)C1Cc2cccc(OCC)c2C(=O)O1 (centres unmarked) [IIIa-22-75] | 100 | – | 48
21 | – | – | CNC1CC(=O)OC1C(O)C(=O)NC(CC(C)C)C1Cc2cccc(O)c2C(=O)O1 (centres unmarked) [IIIa-27-1] | 100 | – | 38

Row | Structure (SMILES) | stability to heat and/or alkali [1] | stability in aqueous solution ([1]; aqueous solution) | inhibition in vivo at 50 mg/kg (ulcer) [%] | solubility [2] | inhibition in vivo at 100 mg/kg (edema) [%]
22 | CC(C)CC(NC(=O)C(O)C(O)C(N)CC(=O)O)C1Cc2cccc(O)c2C(=O)O1 (centres unmarked) [B] | labile to alkali in which the hydrolysis of lactone proceeds gradually even at room temperature | – | 100 | freely soluble in water, methanol, dimethylformamide and dimethyl sulfoxide, sparingly soluble in other lower alcohols, dioxane and tetrahydrofuran, and substantially insoluble in ethyl acetate, chloroform, ether, hexane and benzene | –
